Values quoted from earlier work as cited in patent EP2367539B1, “NOVEL COMPOSITION FOR TREATMENT OF ESSENTIAL THROMBOCYTHEMIA” (AOP Orphan Pharmaceuticals AG, priority 2008, dated 2010).

Assays:
PDE 3 [1] = details: compared with anagrelide
PDE 3 [2] = system: PDE 3

SMILES | potency as an inhibitor of PDE 3 (PDE 3 [1]) | platelet reduction and PDE 3 inhibitory activity (PDE 3 [2])
O=C1NC2=Nc3ccc(Cl)c(Cl)c3CN2C1O (centres unmarked) [3-hydroxyanagrelide] | considerably more potent than anagrelide | 
NC1=Nc2ccc(Cl)c(Cl)c2CN1 [RL 603, 2-amino-5,6-dichloro-3,4-dihydroquinazolone] |  | lacks these activities
